{
  "source": "patent US20240374546A1",
  "about": "“USES AND METHODS FOR PROMOTING INCREASED MITOCHONDRIAL MASS AND FUNCTION” (Brightseed, Inc., priority 2022, published 2024)",
  "key": {"PPARGC1A (PGC1α)": {"system": "PPARGC1A (PGC1α)", "assay": "Western blot, mouse liver, PPARGC1A", "format": "in vivo", "details": "ten weeks of oral NCT", "protocol": "Mouse liver extracts were prepared by incubation in RIPA buffer (Invitrogen) containing protease inhibitors (Calbiochem, San Diego, CA). Protein was quantified by BCA assay (Thermo Scientific). Protein ([…] for cytochrome C) was separated on 12% or 16% Tri-Glycine gels (Invitrogen) and transferred to Immobilon P membrane (0.2 μm pore size, Millipore). After 1 hour in phosphate-buffered saline-Tween (PBST) with 3% milk, membranes were incubated with antibodies to PPARGC1A(PGC1α) (Cat #NBP1-04676, Novus, 1:1000), SDHA XP (Cat #11998, Cell Signaling 1:1000), or Cytochrome C (Cat #4280, Cell Signaling 1:500), followed by secondary antibody conjugated to horseradish peroxidase (1:5000, Jackson Immune or Cell Signaling). […] After detection, membrane was incubated with Ponceau S solution (Sigma) for 1 hr for normalization to loaded protein."}, "HSP60 mRNA": {"system": "HSP60 mRNA", "assay": "qPCR mouse liver, HSP60 mRNA", "format": "in vivo", "details": "HFD+NCT vs HFD", "protocol": "(§1) Total RNA was isolated from liver tissues and primary human hepatocytes using Trizol (Invitrogen). cDNA was amplified using 3 μg of total RNA using qScript cDNA SuperMix (Quanta BioSciences, Beverly, MA, USA). Quantitative real time PCR (RT-PCR) analysis was performed using SYBR® Select Master Mix (Applied Biosystems) and an ABI 7900HT thermal cycler (Applied Biosystems, Thermo Fisher Scientific). Ct values were normalized to 18s rRNA and are expressed as fold change over samples from mice fed NC or cultured human hepatocytes without NCT."}, "Sirt1 mRNA": {"system": "Sirt1 mRNA", "assay": "qPCR mouse liver, Sirtuin1 mRNA", "format": "in vivo", "details": "HFD+NCT vs HFD", "protocol": "as §1"}, "Parp2 mRNA": {"system": "Parp2 mRNA", "assay": "qPCR mouse liver, Parp2 mRNA", "format": "in vivo", "details": "HFD+NCT vs HFD", "protocol": "as §1"}, "TNFα mRNA": {"system": "TNFα mRNA", "assay": "qPCR mouse liver, TNFα mRNA", "format": "in vivo", "details": "HFD+NCT vs HFD", "protocol": "as §1"}, "cleaved caspase3": {"system": "cleaved caspase3", "assay": "Cleaved caspase3 immunostaining", "format": "in vivo, mouse", "details": "mice fed HFD with vs without NCT", "protocol": "Frozen liver sections were permeabilized using 0.3% Triton-X and incubated in antigen retrieval solution (Antigen retrieval citrate, Biogenex) at sub-boiling temperature for 10 min. Subsequently, sections were incubated with blocking buffer containing 5% normal donkey serum (Jackson Immuno Research) followed by incubation overnight at 4° C. with mouse anti-HNF4α monoclonal antibody (1:800, Cat #PP-H1415-00, R&D Systems), rabbit polyclonal anti-VDAC antibody (1:400, cat #PA1-954A, Invitrogen) and cleaved caspase3 antibody (1:500, cat #9664, Cell Signaling). Sections were washed and incubated for 1 hour at room temperature with anti-mouse secondary antibody coupled with Alexa fluor 488 (1:400, Invitrogen) and antirabbit secondary antibody coupled with rhodamine red. Nuclei were visualized by counterstaining with DAPI (40,6-diamidino-2-phenylindole, Sigma Aldrich). Slides were mounted using fluorescence mounting medium and images were obtained at 40× magnification using an Olympus IX71 fluorescence microscope. Fluorescence intensity of HNF4α-stained nuclei and VDAC stained mitochondria was calculated using MetaMorph TL software (version 7.6.5.0, Olympus). Fold change was calculated by normalizing to values from mice fed NC. […]"}, "Microsomal stability": {"assay": "Microsomal stability", "format": "in vitro ADME", "details": "human microsomes compared with rodent"}, "HNF4α": {"target": "T1, HNF4α (Homo sapiens, UniProt P41235)", "T1 sequence (P41235 1-474)": "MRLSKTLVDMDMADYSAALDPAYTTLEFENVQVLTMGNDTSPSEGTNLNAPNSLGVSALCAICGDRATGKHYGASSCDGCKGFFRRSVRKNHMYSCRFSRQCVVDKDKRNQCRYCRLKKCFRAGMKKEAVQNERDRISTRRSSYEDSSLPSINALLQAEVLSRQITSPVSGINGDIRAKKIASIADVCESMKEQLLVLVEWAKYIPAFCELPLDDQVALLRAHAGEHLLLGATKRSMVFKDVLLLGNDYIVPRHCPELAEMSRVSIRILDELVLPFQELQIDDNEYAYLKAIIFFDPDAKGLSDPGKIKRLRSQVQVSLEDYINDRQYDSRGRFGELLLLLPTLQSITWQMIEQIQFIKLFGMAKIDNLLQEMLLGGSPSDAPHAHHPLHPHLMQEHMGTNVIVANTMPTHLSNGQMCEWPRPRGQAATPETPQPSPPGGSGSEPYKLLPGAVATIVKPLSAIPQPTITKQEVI", "assay": "Cell-based human insulin promoter reporter assay sensitive to HNF4α activity", "description": "HNF4α is a nuclear receptor transcription factor that controls the expression of downstream genes that are important in multiple aspects of cellular metabolism. The classical view of HNF4α has been that its ligand binding pocket (LBP) is constitutively occupied by a fatty acid that plays a structural rather than regulatory role. However, it has been shown recently that the fatty acids in the HNF4α LBP are exchangeable in the context of full length HNF4α, particularly inside the cell. […] Using the assay in high-throughput screening, it was discovered HNF4α antagonists and more recently agonists. […] Previously, it was shown that intraperitoneal (IP) administration of NCT reversed hepatic steatosis in obese mice fed a high fat diet through a previously unsuspected pathway involving regulation by HNF4α of dihydroceramide synthesis."}},
  "note": "Like-named read-outs stand apart in the source and are kept apart here.",
  "data": [
    {"smiles": "O=C(/C=C/c1ccc(O)c(O)c1)NCCc1ccc(O)cc1", "note": "[NCT, N-transcaffeoyltyramine]", "values": [
      {"measurement": "PPARGC1A protein in mouse liver", "setting": "PPARGC1A (PGC1α)", "result": "increased"},
      {"measurement": "HSP60 mRNA in mouse liver", "setting": "HSP60 mRNA", "result": "greatly decreased"},
      {"measurement": "Sirt1 mRNA in mouse liver (effect of HFD)", "setting": "Sirt1 mRNA", "result": "almost completely reversed"},
      {"measurement": "Parp2 mRNA level", "setting": "Parp2 mRNA", "result": "not modulated"},
      {"measurement": "TNFα mRNA in mouse liver", "setting": "TNFα mRNA", "result": "significantly reduced"},
      {"measurement": "Caspase 3, marker of apoptosis", "setting": "cleaved caspase3", "result": "no change"},
      {"measurement": "microsomal stability, human versus rodent microsomes", "setting": "Microsomal stability", "result": "much more stable"},
      {"measurement": "HNF4α agonist activity", "setting": "HNF4α", "result": "strong HNF4α agonists"},
      {"measurement": "HNF4α agonist activity", "setting": "HNF4α; listed as N-trans caffeoyltyramine", "result": "potent agonist"}
    ]}
  ]
}
